Structures can show the parent of a compound that is named as a salt. Where two headings read alike, the source gives them in different places.
What was measured:
Assay type in all cases: cell-based
[1] = tested on: Aspergillus flavus AFL1 (ATCC MYA-3631); test: Fungal MIC Protocol, Aspergillus flavus; conditions: Aspergillus flavus, read-out: MIC Aspergillus flavus 3631
Method in brief: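 Aspergillus flavus spores were grown on Potato Dextrose Agar at 35° C. for 3-5 days, harvested in PBS pH 7.4+0.1% Tween-20 with glass beads, and diluted in RPMI/MOPS to an OD530 of 0.002 (about 2×10^4 cfu/mL). 50 ul of spores were combined with 50 μl of serially diluted compound in 96-well round bottom plates and incubated at 35° C. for 48 hours.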

[2] = tested on: Aspergillus fumigatus T33439 (ATCC MYA-3626); test: Fungal MIC Protocol, Aspergillus fumigatus; conditions: Aspergillus fumigatus, read-out: MIC Aspergillus fumigatus 3626
Method in brief: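 Aspergillus fumigatus was grown on Potato Dextrose Agar at 35° C. for 3-5 days, and spores were collected with PBS pH 7.4+0.1% Tween-20 plus glass beads. Spores were diluted in RPMI/MOPS to OD530 0.002 (about 2×10^4 cfu/mL). 50 ul was added to 50 μl of serially diluted compound in round bottom 96-well plates, run in duplicate, and incubated at 35° C. for 48 hours.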

[3] = tested on: Fusarium falciforme FS1 (ATCC MYA-3636); test: Fungal MIC Protocol, Fusarium falciforme; conditions: Fusarium falciforme, read-out: MIC Fusarium falciforme 3636
Method in brief: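 Fusarium falciforme spores were raised on Potato Dextrose Agar at 35° C. for 3-5 days, collected in PBS pH 7.4+0.1% Tween-20 with glass beads, and diluted in RPMI/MOPS pH 7.0 to OD530 0.005 (about 2×10^4 cfu/mL). 50 ul spores were added to 50 μl duplicate serial compound dilutions in round bottom 96-well plates and incubated at 35° C. for 48 hours.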

[4] = tested on: Fusarium solani (ATCC 58877); test: Fungal MIC Protocol, Fusarium solani; conditions: Fusarium solani, read-out: MIC Fusarium solani 58877
Method in brief: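 Fusarium solani spores were grown on Potato Dextrose Agar in tissue culture flasks at 35° C. for 3-5 days, harvested with PBS pH 7.4+0.1% Tween-20 and glass beads, and diluted in RPMI/MOPS to an OD530 of 0.005 (about 2×10^4 cfu/mL). Equal 50 ul volumes of spores and serially diluted compound were combined in 96-well round bottom plates and incubated 48 hours at 35° C.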

[5] = tested on: Mucor circinelloides 1463(62) (ATCC 26759); test: Fungal MIC Protocol, Mucor circinelloides (MIC-50); conditions: Mucor circinelloides, read-out: MIC-50 Mucorales circinelloides 26579
Method in brief: (§1)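 Harvested spores, adjusted by OD530 to about 2×10^4 cfu/mL in RPMI/MOPS pH 7.0, are mixed with ten duplicate serial dilutions of compound. Incubation runs 48 h at 35° C before visual scoring of the lowest concentration inhibiting growth >50%.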

[6] = tested on: Mucor ramosissimus 057718 (ATCC 90286); test: Fungal MIC Protocol, Mucor ramosissimus (MIC-50); conditions: Mucor ramosissimus, read-out: MIC-50 Mucorales ramosissimus 90286
Method in brief: as §1

Candida albicans GDH2346 = test: Candida Minimal Inhibitory Concentration (MIC); conditions: Candida albicans, read-out: MIC-50 Candida albicans GDH2346
Method in brief: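 Twofold serial dilutions from 200 μg/mL in RPMI 1640/MOPS with glucose, pH 7.0, tested in duplicate against yeast from an OD600 1.0 suspension diluted 1:1000. Incubated at 35° C; OD600 read at 24 and 48 h.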

[7] = 100% growth inhibition at 48 hours

MIC [1, 7] [µg/mL]	MIC [2, 7] [µg/mL]	MIC [3, 7] [µg/mL]	MIC ([4]; ATCC58877, 100% growth inhibition at 48 hours) [µg/mL]	MIC50 ([5]; ATCC26759, 50% growth inhibition at 48 hours) [µg/mL]	MIC50 ([6]; ATCC90286, 50% growth inhibition at 48 hours) [µg/mL]	MIC50 (Candida albicans GDH2346; GDH2346, 50% growth inhibition at 48 hours) [µg/mL]	SMILES	MIC ([1]; 48 h) [µg/mL]	MIC ([2]; 48 h) [µg/mL]	MIC ([3]; 48 h) [µg/mL]	MIC ([4]; ATCC58877, 48 h) [µg/mL]	MIC50 ([5]; ATCC26759, 48 h) [µg/mL]	MIC50 ([6]; ATCC90286, 48 h) [µg/mL]	MIC50 (Candida albicans GDH2346; GDH2346, 48 h) [µg/mL]
0.78	0.78	0.78	0.2	1.56	6.25	0.78	COCCn1c(-c2ccc(C3=CCC(C(=N)N)CC3)cc2F)nnc1-c1ccc(C2=CCC(C(=N)N)CC2)cc1F.O=C(O)C(F)(F)F (centres unmarked) [Example 86, 4-(4-{5-[4-(4-carbamimidoylcyclohex-1-en-1-yl)-2-fluorophenyl]-4-(2-methoxyethyl)-4H-1,2,4-triazol-3-yl}-3-fluorophenyl)cyclohex-3-ene-1-carboximidamide trifluoroacetate]							
							Cn1c(-c2ccc(C3=CCC(C(=N)N)CC3)cc2F)nnc1-c1ccc(C2=CCC(C(=N)N)CC2)cc1F (centres unmarked) [Example 87, 4-(4-{5-[4-(4-carbamimidoylcyclohex-1-en-1-yl)-2-fluorophenyl]-4-methyl-4H-1,2,4-triazol-3-yl}-3-fluorophenyl)cyclohex-3-ene-1-carboximidamide trifluoroacetate]	0.78	0.2	0.1	0.2	0.39	3.13	0.2

Source: patent publication US20240018121A1, “NOVEL HETEROAROMATIC COMPOUNDS EXHIBITING ANTIFUNGAL ACTIVITY AND THEIR METHOD OF USE” (FOX CHASE CHEMCIAL DIVERSITY CENTER, INC., priority 2020, published 2024)
